Active and inactive are the calls of the source. The rule behind the calls is not given here.
Tests used:
[1] = (§1) Antiproliferative activity against human MGC803 cells after 72 hrs by MTT assay; format: functional, cell-based; conditions: MGC-803, 72 h
[2] = Antiproliferative activity against human MCF7 cells after 72 hrs by MTT assay; format: functional, cell-based; conditions: MCF7, 72 h
[3] = Antiproliferative activity against human EC109 cells after 72 hrs by MTT assay; format: functional, cell-based; conditions: ECa-109, 72 h
[4] = Antiproliferative activity against human GES-1 cells after 72 hrs by MTT assay; format: cell-based; conditions: GES1, 72 h
MGC-803 [5] = assay: as §1; format: functional, cell-based
[6] = Inhibition of colony formation in human MGC803 cells assessed as reduction in foci formation at 0.8 uM after 10 days by crystal violet staining based assay relative to control; format: functional; conditions: MGC-803, 240 h
MGC-803 [7] = assay: Induction of apoptosis in human MGC803 cells assessed as cell rounding at 1 to 4 uM after 24 hrs by Hoechst 33258 staining based fluorescence microscopic method; format: functional
MGC-803 [8] = assay: Induction of apoptosis in human MGC803 cells assessed as chromatin shrinkage at 1 to 4 uM after 24 hrs by Hoechst 33258 staining based fluorescence microscopic method; format: functional, cell-based
MGC-803 [9] = assay: Induction of apoptosis in human MGC803 cells assessed as formation of apoptotic bodies at 1 to 4 uM after 24 hrs by Hoechst 33258 staining based fluorescence microscopic method; format: functional, cell-based
MGC-803 [10] = assay: Induction of apoptosis in human MGC803 cells after 24 hrs by Annexin-V FITC/propidium iodide staining based flow cytometry; format: functional, cell-based
MGC-803 [11] = assay: Induction of apoptosis in human MGC803 cells at 1 uM after 24 hrs by Annexin-V FITC/propidium iodide staining based flow cytometry (reference value: 1.8%); format: functional
MGC-803 [12] = assay: Induction of apoptosis in human MGC803 cells at 2 uM after 24 hrs by Annexin-V FITC/propidium iodide staining based flow cytometry (reference value: 1.8%); format: functional
MGC-803 [13] = assay: Induction of apoptosis in human MGC803 cells at 4 uM after 24 hrs by Annexin-V FITC/propidium iodide staining based flow cytometry (reference value: 1.8%); format: functional
MGC-803 [14] = assay: Induction of mitochondrial membrane potential loss in human MGC803 cells at 4 uM after 24 hrs by JC-1 staining based flow cytometry (reference value: 49.8%); format: functional
MGC-803 [15] = assay: Induction of mitochondrial membrane potential loss in human MGC803 cells after 24 hrs by JC-1 staining based flow cytometry; format: functional, cell-based
MGC-803 [16] = assay: Induction of apoptosis in human MGC803 cells assessed as increase in Bax protein expression after 24 hrs by Western blot method; format: functional, cell-based
MGC-803 [17] = assay: Induction of apoptosis in human MGC803 cells assessed as increase in Bak protein expression after 24 hrs by Western blot method; format: functional, cell-based
MGC-803 [18] = assay: Induction of apoptosis in human MGC803 cells assessed as increase in PUMA protein expression after 24 hrs by Western blot method; format: functional, cell-based
MGC-803 [19] = assay: Induction of apoptosis in human MGC803 cells assessed as decrease in Bcl2 protein expression at 1 to 4 uM after 24 hrs by Western blot method; format: functional, cell-based
MGC-803 [20] = assay: Induction of apoptosis in human MGC803 cells assessed as decrease in Mcl1 protein expression at 1 to 4 uM after 24 hrs by Western blot method; format: functional, cell-based
MGC-803 [21] = assay: Induction of apoptosis in human MGC803 cells assessed as increase in caspase-3 protein expression at 1 to 4 uM after 24 hrs by Western blot method; format: functional, cell-based
MGC-803 [22] = assay: Induction of apoptosis in human MGC803 cells assessed as increase in caspase-9 protein expression at 1 to 4 uM after 24 hrs by Western blot method; format: functional, cell-based
[23] = target: Lysine-specific histone demethylase 1A (Homo sapiens) (UniProt O60341); assay: Inhibition of LSD1 (unknown origin) at 10 uM relative to control

`CCCSc1nc(N/N=C(\C)c2ccccc2O)c2nnn(Cc3ccc(Br)cc3)c2n1` showed an IC50 [1] of 11.3 µM, an IC50 [2] of 15.6 µM and an IC50 [3] of 36.1 µM.

For `CCCSc1nc(N/N=C/c2c[nH]c3ccccc23)c2nnn(Cc3ccccc3)c2n1`, the IC50 [1] was 7.41 µM, the IC50 [2] was 9.01 µM and the IC50 [3] was 8.69 µM.

In the case of `CCCSc1nc(N/N=C(\C)c2ccccc2O)c2nnn(CCc3cccs3)c2n1`, the IC50 [1] is reported as 16.4 µM, the IC50 [2] is reported as over 64 µM and the IC50 [3] is reported as 30.9 µM.

For `CCCSc1nc(N/N=C(\C)c2ccccc2O)c2nnn(Cc3ccccc3)c2n1`, the IC50 [1] was 2.31 µM, the IC50 [2] was 11 µM and the IC50 [3] was 11.1 µM. For the same compound, the IC50 [4] was 32.3 µM.

With `CCCSc1nc(N/N=C/c2ccccc2F)c2nnn(Cc3ccccc3)c2n1` the IC50 [1] was over 64 µM, the IC50 [2] was over 64 µM and the IC50 [3] was over 64 µM.

Compound `CCCSc1nc(N/N=C(\C)c2ccccc2O)c2nnn(Cc3ccc(F)cc3)c2n1` has an IC50 [1] of 11 µM, an IC50 [2] of over 64 µM and an IC50 [3] of 21.9 µM.

Compound `CCCSc1nc(N/N=C/c2ccccc2)c2nnn(Cc3ccccc3)c2n1` has an IC50 [1] of over 64 µM, an IC50 [2] of over 64 µM and an IC50 [3] of over 64 µM.

`CCCSc1nc(N/N=C/c2c(O)ccc3ccccc23)c2nnn(Cc3ccccc3)c2n1` showed an IC50 [1] of 3.71 µM, an IC50 [2] of 6.4 µM and an IC50 [3] of 9.29 µM. The IC50 [4] was 13.1 µM.

For `CCCSc1nc(N/N=C(\C)c2ccc(Br)cc2)c2nnn(Cc3ccccc3)c2n1`, the IC50 [1] was 6.02 µM, the IC50 [2] was 13 µM and the IC50 [3] was 4.67 µM.

`CCCSc1nc(N/N=C/c2ccc(N(C)C)cc2)c2nnn(Cc3ccccc3)c2n1` showed an IC50 [1] of 13.1 µM, an IC50 [2] of 12.2 µM and an IC50 [3] of 20 µM.

Work on `C#CCSc1nc(N/N=C/c2ccc(N(C)C)cc2)c2nnn(Cc3ccccc3)c2n1` yielded an IC50 [1] of 7.62 µM, an IC50 [2] of over 64 µM and an IC50 [3] of 31.2 µM.

In the case of `CCCSc1nc(N/N=C/c2ccc(Br)cc2)c2nnn(Cc3ccccc3)c2n1`, the IC50 [1] is reported as 34.9 µM, the IC50 [2] is reported as over 64 µM and the IC50 [3] is reported as over 64 µM.

`CCCSc1nc(N/N=C/c2cccs2)c2nnn(Cc3ccccc3)c2n1` showed an IC50 [1] of over 64 µM, an IC50 [2] of over 64 µM and an IC50 [3] of over 64 µM.

In the case of `C/C(=N\Nc1nc(SCc2ccccc2)nc2c1nnn2Cc1ccccc1)c1ccccc1O`, the IC50 [1] is reported as 0.85 µM, the Activity (MGC-803 [5]) is reported as “Dose-dependent effect” and the IC50 [2] is reported as 0.95 µM. The IC50 [3] was 1.77 µM, the IC50 [4] was 56.2 µM and the inhibition at 0.8 µM [6] was 83%. For the same compound, the Activity (MGC-803 [7]) was “Active”, the Activity (MGC-803 [8]) was “Active” and the Activity (MGC-803 [9]) was “Active”. The Activity (MGC-803 [10]) was “Dose-dependent effect”, the Activity (MGC-803 [11]) was “<=8.7%” and the Activity (MGC-803 [12]) was “<=24.8%”. For the same compound, the Activity (MGC-803 [13]) was “<=53.9%”, the Activity (MGC-803 [14]) was “<=90.4%” and the Activity (MGC-803 [15]) was “Dose-dependent effect”. The Activity (MGC-803 [16]) was “Dose-dependent effect”, the Activity (MGC-803 [17]) was “Dose-dependent effect” and the Activity (MGC-803 [18]) was “Dose-dependent effect”. The Activity (MGC-803 [19]) was “Active”, the Activity (MGC-803 [20]) was “Active” and the Activity (MGC-803 [21]) was “Active”. For the same compound, the Activity (MGC-803 [22]) was “Active” and the inhibition [23] was 26.8%.

`C#CCSc1nc(N/N=C/c2cc(OC)c(OC)c(OC)c2)c2nnn(Cc3ccccc3)c2n1` gave an IC50 [1] of 4.67 µM, an IC50 [2] of 17 µM and an IC50 [3] of 6.54 µM. For the same compound, the IC50 [4] was 25.6 µM.

`CCCSc1nc(N/N=C(\C)c2ccccc2O)c2nnn(Cc3ccco3)c2n1` showed an IC50 [1] of 4.76 µM, an IC50 [2] of 29 µM and an IC50 [3] of 5.76 µM. The IC50 [4] was 33.3 µM.

In the case of `CCCSc1nc(N/N=C/c2ccc(C)cc2)c2nnn(Cc3ccccc3)c2n1`, the IC50 [1] is reported as over 64 µM, the IC50 [2] is reported as over 64 µM and the IC50 [3] is reported as over 64 µM.

Compound `CCCSc1nc(N/N=C(\C)c2ccccc2O)c2nnn(Cc3ccc(Cl)cc3)c2n1` has an IC50 [1] of 7.1 µM, an IC50 [2] of 42.6 µM and an IC50 [3] of 11.2 µM.

In the case of `CCCSc1nc(N/N=C/c2ccc3ccccc3c2)c2nnn(Cc3ccccc3)c2n1`, the IC50 [1] is reported as over 64 µM, the IC50 [2] is reported as over 64 µM and the IC50 [3] is reported as over 64 µM.

Compound `CCCSc1nc(N/N=C(\C)c2ccccc2)c2nnn(Cc3ccccc3)c2n1` has an IC50 [1] of 25.4 µM, an IC50 [2] of 32.1 µM and an IC50 [3] of 32.2 µM.

Compound `CCCSc1nc(N/N=C/c2ccc([N+](=O)[O-])cc2)c2nnn(Cc3ccccc3)c2n1` has an IC50 [1] of 10.1 µM, an IC50 [2] of 11 µM and an IC50 [3] of 6.64 µM.

`CCCSc1nc(N/N=C/c2cccc(Cl)c2)c2nnn(Cc3ccccc3)c2n1` showed an IC50 [1] of over 64 µM, an IC50 [2] of over 64 µM and an IC50 [3] of over 64 µM.

`C#CCSc1nc(N/N=C(\C)c2ccccc2O)c2nnn(Cc3ccccc3)c2n1` showed an IC50 [1] of 3.82 µM, an IC50 [2] of 11.2 µM and an IC50 [3] of 5.25 µM.

Work on `CCCSc1nc(N/N=C(\C)c2ccccc2O)c2nnn(Cc3ccccc3Cl)c2n1` yielded an IC50 [1] of 35 µM, an IC50 [2] of over 64 µM and an IC50 [3] of over 64 µM.

`COc1cc(/C=N/Nc2nc(SCc3ccccc3)nc3c2nnn3Cc2ccccc2)cc(OC)c1OC` gave an IC50 [1] of 1.32 µM, an IC50 [2] of 13.5 µM and an IC50 [3] of 4.4 µM. It also gave an IC50 [4] of 48.3 µM.

`CCCSc1nc(N/N=C/c2ccccc2Cl)c2nnn(Cc3ccccc3)c2n1` gave an IC50 [1] of 10.9 µM, an IC50 [2] of 13.8 µM and an IC50 [3] of 6.18 µM.

With `CCCSc1nc(N/N=C/c2ccc(Cl)cc2)c2nnn(Cc3ccccc3)c2n1` the IC50 [1] was over 64 µM, the IC50 [2] was over 64 µM and the IC50 [3] was over 64 µM.

With `CCCSc1nc(N/N=C/c2cccnc2)c2nnn(Cc3ccccc3)c2n1` the IC50 [1] was 38.1 µM, the IC50 [2] was 58.7 µM and the IC50 [3] was over 64 µM.

Work on `CCCSc1nc(N/N=C(\C)c2ccccc2O)c2nnn(Cc3cccc(Cl)c3)c2n1` yielded an IC50 [1] of 6.5 µM, an IC50 [2] of 39.9 µM and an IC50 [3] of 13 µM.

For `CCCSc1nc(N/N=C(\C)c2ccc(OC)cc2)c2nnn(Cc3ccccc3)c2n1`, the IC50 [1] was 44.3 µM, the IC50 [2] was over 64 µM and the IC50 [3] was over 64 µM.

`CCCSc1nc(N/N=C(\C)c2ccccc2O)c2nnn(CCO)c2n1` showed an IC50 [1] of 47.1 µM, an IC50 [2] of over 64 µM and an IC50 [3] of 60.3 µM.

For `C#CCSc1nc(N/N=C/c2c(O)ccc3ccccc23)c2nnn(Cc3ccccc3)c2n1`, the IC50 [1] was 10.5 µM, the IC50 [2] was 8.97 µM and the IC50 [3] was 6.52 µM.

With `O=c1[nH]cc(F)c(=O)[nH]1` [FLUOROURACIL] the IC50 [1] was 7.35 µM, the IC50 [2] was 9.25 µM and the IC50 [3] was 10.6 µM.

With `CCCSc1nc(N/N=C/c2cc(OC)c(OC)c(OC)c2)c2nnn(Cc3ccccc3)c2n1` the IC50 [1] was 9.41 µM, the IC50 [2] was over 64 µM and the IC50 [3] was 4.06 µM. It also gave an IC50 [4] of over 64 µM.

With `CCCSc1nc(N/N=C(\C)c2ccccc2O)c2nnn(Cc3ccc(O)cc3)c2n1` the IC50 [1] was 7.68 µM, the IC50 [2] was 9.52 µM and the IC50 [3] was 15.9 µM.

`CCCSc1nc(N/N=C(\C)c2ccc(O)cc2)c2nnn(Cc3ccccc3)c2n1` showed an IC50 [1] of 16.7 µM, an IC50 [2] of 21.6 µM and an IC50 [3] of 32.5 µM.

Reference: ChEMBL document CHEMBL3875177, “Design, synthesis and biological evaluation of [1,2,3]triazolo[4,5-d]pyrimidine derivatives possessing a hydrazone moiety as antiproliferative agents” (Eur J Med Chem, 2016)
